Laboratory results published in paper PMC3945162 (Psychopharmacology, 2013).

What was measured:
human 5-HT1A receptor [1] = molecular target: T1, human 5-HT1A receptor (Homo sapiens, UniProt P08908); test: [3H]8-OH-DPAT binding, HEK-5-HT1A
T1 sequence (P08908 1-422): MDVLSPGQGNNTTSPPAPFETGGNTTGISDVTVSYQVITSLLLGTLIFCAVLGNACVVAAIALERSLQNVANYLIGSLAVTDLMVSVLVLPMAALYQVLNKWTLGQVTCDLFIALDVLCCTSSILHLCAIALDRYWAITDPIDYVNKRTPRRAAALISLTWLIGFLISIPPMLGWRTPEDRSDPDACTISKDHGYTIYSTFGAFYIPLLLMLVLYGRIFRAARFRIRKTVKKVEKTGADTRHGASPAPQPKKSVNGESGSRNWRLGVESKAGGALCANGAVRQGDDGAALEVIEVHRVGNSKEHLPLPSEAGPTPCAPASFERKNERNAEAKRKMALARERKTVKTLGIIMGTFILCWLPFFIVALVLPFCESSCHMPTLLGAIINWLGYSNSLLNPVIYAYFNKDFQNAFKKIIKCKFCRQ

human 5-HT1A receptor [2] = molecular target: T1, human 5-HT1A receptor; test: [35S]GTPγS binding functional assay, HEK-5-HT1A; type: biochemical
human 5-HT2A receptor [3] = molecular target: T2, human 5-HT2A receptor (Homo sapiens, UniProt P28223); test: [125I]DOI binding, HEK-5-HT2A cells
human 5-HT2A receptor [4] = molecular target: T2, human 5-HT2A receptor; test: IP-1 formation, HEK-5-HT2A cells; type: cell-based
human 5-HT2C receptor [5] = molecular target: T3, human 5-HT2C receptor (Homo sapiens, UniProt P28335); test: biochemical; type: binding; details: read-out: 5-HT2C [125I]DOI binding Ki ± sem
T3 sequence (P28335 33-458): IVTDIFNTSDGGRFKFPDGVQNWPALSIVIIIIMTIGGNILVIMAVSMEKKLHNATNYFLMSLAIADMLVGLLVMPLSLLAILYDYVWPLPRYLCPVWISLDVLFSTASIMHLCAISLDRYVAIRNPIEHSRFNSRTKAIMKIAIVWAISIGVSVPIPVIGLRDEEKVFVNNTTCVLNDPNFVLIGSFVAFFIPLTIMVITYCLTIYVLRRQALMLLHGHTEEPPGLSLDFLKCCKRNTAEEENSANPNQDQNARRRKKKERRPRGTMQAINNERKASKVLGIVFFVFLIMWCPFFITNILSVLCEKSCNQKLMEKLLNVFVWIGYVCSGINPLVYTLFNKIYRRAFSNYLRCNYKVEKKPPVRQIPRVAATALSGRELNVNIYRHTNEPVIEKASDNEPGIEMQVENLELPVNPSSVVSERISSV

human 5-HT2C receptor [6] = molecular target: T3, human 5-HT2C receptor; test: cell-based
hDAT [7] = molecular target: T4, hDAT (Homo sapiens, UniProt Q01959); test: [125I]RTI-55 binding, HEK-hDAT cells
hDAT [8] = molecular target: T4, hDAT; test: [3H]Dopamine uptake, HEK-hDAT cells; type: cell-based
hDAT [9] = molecular target: T4, hDAT; test: [3H]Dopamine release, HEK-hDAT cells; type: cell-based; details: read-out: [3H]Dopamine release % METH maximal effect
hSERT [10] = molecular target: T5, hSERT (Homo sapiens, UniProt P31645); test: [125I]RTI-55 binding, HEK-hSERT cells
hNET [11] = molecular target: T6, hNET (Homo sapiens, UniProt P23975); test: biochemical; type: binding
hNET [12] = molecular target: T6, hNET; test: cell-based
hNET [13] = molecular target: T6, hNET; test: cell-based; details: read-out: [3H]NE release % METH maximal effect
hDAT [14] = molecular target: T4, hDAT; details: read-out: [3H]Dopamine release EC50; HEK-hDAT cells; ref Gatch et al., 2011; cited from earlier work
hSERT [15] = molecular target: T5, hSERT; details: read-out: [3H]Serotonin release EC50; HEK-hSERT cells; ref Gatch et al., 2011; cited from earlier work
hNET [16] = molecular target: T6, hNET; details: read-out: [3H]NE release EC50; HEK-hNET cells; ref Gatch et al., 2011; cited from earlier work

T2 sequence (P28223 whole entry): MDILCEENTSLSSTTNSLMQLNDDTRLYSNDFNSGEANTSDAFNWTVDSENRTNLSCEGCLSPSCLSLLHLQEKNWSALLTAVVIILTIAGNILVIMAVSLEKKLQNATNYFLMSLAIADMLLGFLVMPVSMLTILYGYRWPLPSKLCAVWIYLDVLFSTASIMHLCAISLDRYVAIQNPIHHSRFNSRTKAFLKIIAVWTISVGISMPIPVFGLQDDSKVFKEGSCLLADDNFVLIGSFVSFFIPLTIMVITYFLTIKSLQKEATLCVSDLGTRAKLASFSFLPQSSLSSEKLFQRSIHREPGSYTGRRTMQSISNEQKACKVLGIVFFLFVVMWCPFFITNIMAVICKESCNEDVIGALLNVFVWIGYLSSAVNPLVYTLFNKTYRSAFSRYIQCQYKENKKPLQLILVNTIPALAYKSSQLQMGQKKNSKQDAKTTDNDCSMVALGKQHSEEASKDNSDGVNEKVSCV
T4 sequence (Q01959 whole entry): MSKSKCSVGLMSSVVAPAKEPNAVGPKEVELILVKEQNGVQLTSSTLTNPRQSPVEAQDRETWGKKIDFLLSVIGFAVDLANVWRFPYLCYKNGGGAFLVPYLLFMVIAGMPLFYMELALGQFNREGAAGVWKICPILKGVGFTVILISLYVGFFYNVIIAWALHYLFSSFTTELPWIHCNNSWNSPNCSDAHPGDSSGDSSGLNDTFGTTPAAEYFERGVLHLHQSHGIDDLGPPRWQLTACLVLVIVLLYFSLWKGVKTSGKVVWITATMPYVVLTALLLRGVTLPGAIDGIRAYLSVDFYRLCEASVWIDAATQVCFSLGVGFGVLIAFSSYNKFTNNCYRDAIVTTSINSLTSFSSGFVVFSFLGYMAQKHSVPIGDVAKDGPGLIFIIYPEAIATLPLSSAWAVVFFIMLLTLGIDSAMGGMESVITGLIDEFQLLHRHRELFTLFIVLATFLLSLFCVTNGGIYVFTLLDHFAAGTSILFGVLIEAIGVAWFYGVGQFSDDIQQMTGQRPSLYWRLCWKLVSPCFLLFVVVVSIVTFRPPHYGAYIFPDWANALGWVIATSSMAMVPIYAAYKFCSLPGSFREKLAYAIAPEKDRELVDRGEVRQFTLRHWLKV
T6 sequence (P23975 whole entry): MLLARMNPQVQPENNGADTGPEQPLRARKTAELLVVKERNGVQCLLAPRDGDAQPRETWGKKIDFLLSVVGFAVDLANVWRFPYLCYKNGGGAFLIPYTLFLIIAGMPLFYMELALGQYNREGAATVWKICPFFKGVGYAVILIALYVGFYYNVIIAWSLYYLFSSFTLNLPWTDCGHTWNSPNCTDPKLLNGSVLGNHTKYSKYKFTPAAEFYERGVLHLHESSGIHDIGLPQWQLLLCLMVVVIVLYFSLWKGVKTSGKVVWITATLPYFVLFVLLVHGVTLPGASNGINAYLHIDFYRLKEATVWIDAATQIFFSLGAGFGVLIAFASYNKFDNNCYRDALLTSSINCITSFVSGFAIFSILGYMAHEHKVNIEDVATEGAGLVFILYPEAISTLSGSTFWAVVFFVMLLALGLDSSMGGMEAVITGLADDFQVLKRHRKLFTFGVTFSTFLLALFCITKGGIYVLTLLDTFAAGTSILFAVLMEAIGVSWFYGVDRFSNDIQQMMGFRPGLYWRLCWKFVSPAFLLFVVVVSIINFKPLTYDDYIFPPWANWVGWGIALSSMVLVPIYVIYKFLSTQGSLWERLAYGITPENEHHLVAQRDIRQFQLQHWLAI
T5 sequence (P31645 whole entry): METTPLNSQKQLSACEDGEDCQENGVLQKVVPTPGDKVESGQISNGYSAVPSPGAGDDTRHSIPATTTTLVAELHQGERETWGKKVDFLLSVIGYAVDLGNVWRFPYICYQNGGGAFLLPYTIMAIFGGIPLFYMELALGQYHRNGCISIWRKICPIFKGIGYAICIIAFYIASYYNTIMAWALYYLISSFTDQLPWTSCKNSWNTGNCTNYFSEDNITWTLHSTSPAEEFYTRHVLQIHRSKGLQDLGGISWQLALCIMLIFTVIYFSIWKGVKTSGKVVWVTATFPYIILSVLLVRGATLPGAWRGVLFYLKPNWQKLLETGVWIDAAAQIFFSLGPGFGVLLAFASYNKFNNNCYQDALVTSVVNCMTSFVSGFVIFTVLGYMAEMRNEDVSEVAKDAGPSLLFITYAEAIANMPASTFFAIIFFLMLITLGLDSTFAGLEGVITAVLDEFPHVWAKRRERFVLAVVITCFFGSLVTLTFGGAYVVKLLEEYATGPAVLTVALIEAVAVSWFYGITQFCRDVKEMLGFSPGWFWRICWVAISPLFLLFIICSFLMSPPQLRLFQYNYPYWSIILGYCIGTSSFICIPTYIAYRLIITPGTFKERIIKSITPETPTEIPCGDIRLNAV

CN[C@@H](C)Cc1ccccc1 [METH, methamphetamine, reference compound]
Ki (human 5-HT1A receptor [1]): 9.7 ± 1.8 µM
EC50 (human 5-HT1A receptor [2]): 23.6 ± 8.1 µM
Emax (human 5-HT1A receptor [2]; read-out: 5-HT1A Function [35S]GTPγS Binding % maximal effect): 68 ± 11%
Ki (human 5-HT2A receptor [3]): 41.9 ± 9.6 µM
EC50 (human 5-HT2A receptor [4]): > 1000 µM
Emax (human 5-HT2A receptor [4]; read-out: 5-HT2A Function IP-1 formation % maximal effect): < 3%
Ki (human 5-HT2C receptor [5]): 10.1 ± 3.2 µM
EC50 (human 5-HT2C receptor [6]): 74 ± 16 µM
Emax (human 5-HT2C receptor [6]; read-out: 5-HT2C Function IP-formation % maximal effect): 52 ± 10%
Ki (hDAT [7]): 4.75 ± 0.53 µM
IC50 (hDAT [8]): 0.056 ± 0.015 µM
Emax (hDAT [9]): 100%
Ki (hSERT [10]): 188 ± 14 µM
Ki (hNET [11]): 1.48 ± 0.13 µM
IC50 (hNET [12]): 0.023 ± 0.0055 µM
Emax (hNET [13]): 100%
EC50 (hDAT [14]): 0.97 ± 0.25 µM
EC50 (hSERT [15]): 27.8 ± 7.7 µM
EC50 (hNET [16]): 0.067 ± 0.018 µM
